Assay results as given in patent publication US10508140B2, “Peptide having hair growth-promoting activity and/or melanin generation-promoting activity, and use thereof” (CAREGEN CO., LTD., priority 2016, dated 2019).
No end group written: not given here.

Tests used:
Type in all cases: cell-based
tyrosinase [1] = assay: Melanogenesis-related protein western blotting: tyrosinase; conditions: B16F10 cell line, 72 hours
Protocol: (§1) Melanocytes (B16F10 cell line) were incubated on 6-well culture plates for 24 hours, and were treated with the peptides of the present invention with different concentrations. After 72-hour incubation, the cells were lysed, and the cells were subjected to western blotting using specific antibodies (two types, both from Santa Cruz Biotechnology, USA) to investigate the expression of MITF and tyrosinase, which are factors involved in melanogenesis.

DKK-1 [2] = assay: DKK-1 RT-PCR; conditions: human hair follicle dermal papilla cells, DKK-1 increased by DHT, 24 hours
Protocol: (§2) Human hair follicle dermal papilla cells were seeded at a density of 5×10^5 cells/well on 6-well plates, followed by incubation overnight. After changing into serum-free medium, the cells were treated with the peptides, followed by incubation for 24 hours, and then the wells were harvested to isolate RNA. After RNA quantification, cDNA synthesis was conducted using the cDNA synthesis kit (Intron, Korea), followed by PCR using PCR premix (Intron, Korea) and DKK-1 primers, and then electrophoresis was performed on 5% agarose gel to compare the mRNA expression levels of the growth factors in respective sample treatment conditions.

Bcl-2 = Bcl-2 western blotting; conditions: human hair follicle dermal papilla cells, 24 hours
Protocol: (§3) Human hair follicle dermal papilla cells were seeded at a density of 4×10^5 cells/well on 6-well plate, followed by incubation overnight. After changing into serum-free medium, the cells were treated with the peptides, followed by incubation for 24 hours, and then the wells were harvested to prepare cell lysate. Western blotting was performed using Bcl-2 and Bax antibodies (Santa Cruz Biotechnology, USA) to compare protein expression patterns.

Bax = Bax western blotting; conditions: human hair follicle dermal papilla cells, 24 hours
Protocol: as §3

CREB = assay: Melanogenesis-related protein activity assay: CREB phosphorylation (western blotting); conditions: B16F10 cell line, 72 hours
Protocol: Melanocytes (B16F10 cell line) were incubated on 6-well culture plates in an incubator for 24 hours, and were treated with the peptide of the present invention with different concentrations. After 72-hour incubation, the cells were lysed, and the cells were subjected to western blotting using specific antibodies (Cell Signaling Technology, USA) to investigate the phosphorylation level of CREB, which is a signaling substance involved in melanogenesis.

MITF [3] = assay: Melanogenesis-related gene RT-PCR: MITF; conditions: B16F10 cell line, 72 hours
Protocol: (§4) Melanocytes (B16F10 cell line) were incubated on 6-well culture plates in an incubator for 24 hours, and were treated with the peptides of the present invention with different concentrations. After RNA was extracted from the cells incubated for 72 hours, cDNA was prepared. PCR was performed by using respective primers specific to MITF and tyrosinase, which are factors involved in melanogenesis, and the expression changes of the respective genes were observed.

keratin-14 = assay: Keratin-14 RT-PCR; conditions: human hair follicle dermal papilla cells, 24 hours
Protocol: as §2, with “Ha3-II and keratin-14” for “DKK-1”

[4] = tested on: Human hair follicle dermal papilla cells; assay: DPC proliferation assay (MTT); conditions: serum-free medium, incubation for 3 days, absorbance 550 nm
Protocol: Human hair follicle dermal papilla cells were seeded at a density of 2×10^3 cells/well on 96-well plates, followed by incubation overnight. After changing into serum-free medium, the cells were treated with the peptides, followed by incubation for 3 days, and then the wells were treated with 4 mg/ml MTT solution, followed by reaction for 4 hours. The resulting formazan was solubilized with DNSO, and then the absorbance was measured at 550 nm using a microplate reader.

tyrosinase [5] = assay: Tyrosinase activity assay; conditions: B16F10 cells, 72 hours, L-dopa, absorbance 475 nm
Protocol: Melanoma cell line (B16F10) cells were cultured in 6-well culture plates for 24 hours, and treated with a peptide with difference concentrations, followed by culture for 72 hours. The 6-well culture plates were loaded on ice and washed with cool PBS, and then 300 μl of 0.1 M sodium phosphate buffer (pH 6.8 lysis buffer) containing 1% Triton X-100 was added. The cells were collected in 1.5-mL tubes, and then cell membranes were disrupted by repeating five times rapid-freezing at […] and thawing. After centrifugation at 13,000 rpm for 20 minutes, the supernatant was collected in other 1.5-mL tubes, and the protein of the samples was quantified. The samples were diluted to have the same protein concentration and then dispensed in each three wells in a 96-well culture plate, and then 20 μl of 10 mM L-dopa was added, followed by incubation at 37° C. for 1 hour.

DKK-1 [6] = assay: DKK-1 western blotting; conditions: human hair follicle dermal papilla cells, DKK-1 increased by DHT, 24 hours
Protocol: as §3, with “DKK-1” for “Bcl-2 and Bax”

ERK = assay: p-ERK western blotting; conditions: human hair follicle dermal papilla cells, 15 and 30 minutes
Protocol: as §3, with “15 and 30 minutes,” for “24 hours,”, “PI3K” for “Bcl-2 and Bax”, “Biotechnology, USA) and phospho-ERK antibody (Cell Signaling Technology,” for “Biotechnology,”

[7] = tested on: melanocytes (B16F10 cell line); assay: Melanin measurement assay; conditions: 72 hours, absorbance 490 nm
Protocol: After melanocytes (B16F10 cell line) in 6-well plates were cultured in an incubator at 37° C. for 24 hours, the medium of each plate was removed and exchanged with a fresh medium, followed by treatment with the present peptide with different concentrations. After the incubation for 72 hours, the culture medium was removed, and the cells were taken off and then transferred into 1.5-ml tubes, followed by centrifugation at 13,000 rpm for 3 minutes. The supernatant was removed, and cell pellets were collected to observe melanin. Then, 150 μl of 2 M NaOH was added to the cell pellets to lyse intracellular melanin at 60° C. for 30 minutes. Then, 100 μl of the supernatant obtained from the lysis was added into each well of 96-well plates, and the absorbance was measured at 490 nm.

β-catenin = assay: β-Catenin activity test (western blotting, nuclear and cytoplasmic proteins); conditions: human hair follicle dermal papilla cells, 15 and 30 minutes
Protocol: as §3, with “plates,” for “plate,”, “15 and 30 minutes,” for “24 hours,”, “isolate nuclear and cytoplasmic proteins.” for “prepare cell lysate.”, “β-catenin” for “Bcl-2 and Bax antibodies”, “β-catenin” for “protein”

KGF = KGF RT-PCR; conditions: human hair follicle dermal papilla cells, 24 hours
Protocol: as §2, with “4×10^5” for “5×10^5”, “plate,” for “plates,”, “respective KGF and VEGF” for “DKK-1”, “in” for “in respective”

TGF-β1 = TGF-β1 RT-PCR; conditions: human hair follicle dermal papilla cells, 24 hours
Protocol: as §2, with “4×10^5” for “5×10^5”, “plate,” for “plates,”, “TGF-β1” for “DKK-1”

PI3K = PI3K western blotting; conditions: human hair follicle dermal papilla cells, 15 and 30 minutes
Protocol: as §3, with “15 and 30 minutes,” for “24 hours,”, “PI3K” for “Bcl-2 and Bax”, “Biotechnology, USA) and phospho-ERK antibody (Cell Signaling Technology,” for “Biotechnology,”

tyrosinase [8] = assay: Melanogenesis-related gene RT-PCR: tyrosinase; conditions: B16F10 cell line, 72 hours
Protocol: as §4

MITF [9] = assay: Melanogenesis-related protein western blotting: MITF; conditions: B16F10 cell line, 72 hours
Protocol: as §1

Ha3-II = Ha3-II RT-PCR; conditions: human hair follicle dermal papilla cells, 24 hours
Protocol: as §2, with “Ha3-II and keratin-14” for “DKK-1”

MSX2 = MSX2 RT-PCR; conditions: human hair follicle dermal papilla cells, 24 hours
Protocol: as §2, with “4×10^5” for “5×10^5”, “plate,” for “plates,”, “MSX2” for “DKK-1”, “level” for “levels”, “factor” for “factors”, “in” for “in respective”

VEGF = VEGF RT-PCR; conditions: human hair follicle dermal papilla cells, 24 hours
Protocol: as §2, with “4×10^5” for “5×10^5”, “plate,” for “plates,”, “respective KGF and VEGF” for “DKK-1”, “in” for “in respective”

TRP1 = assay: Melanogenesis-related gene RT-PCR: TRP1; conditions: B16F10 cell line, 72 hours, FIG. 13b

KWKRSADTL [SEQ ID NO: 2]
protein expression of tyrosinase enzyme (tyrosinase [1]): increases
mRNA expression of DKK-1 (DKK-1 [2]): decreased
expression of the anti-apoptotic protein Bcl-2 (Bcl-2): increased
expression of the apoptosis-related protein Bax (Bax): decreased
phosphorylation level of CREB (CREB): increased
mRNA expression of MITF transcription factor (MITF [3]): increased
mRNA expression of keratin-14 (keratin-14): increased
growth of human hair follicle dermal papilla cells [4]: stimulated in a dose-dependent manner
tyrosinase activity (tyrosinase [5]): increased
protein expression of DKK-1 (DKK-1 [6]): decreased
phosphorylation level of ERK (ERK): increase
melanogenesis [7]: increased
activity of β-catenin (β-catenin): increased
expression of KGF (mRNA) (KGF): increased
expression of TGF-β1 (mRNA) (TGF-β1): inhibited
expression of PI3K (PI3K): increase
mRNA expression of tyrosinase enzyme (tyrosinase [8]): increased
protein expression of MITF transcription factor (MITF [9]): increases

WKWRSADTL [SEQ ID NO: 1]
protein expression of tyrosinase enzyme (tyrosinase [1]): increased
mRNA expression of DKK-1 (DKK-1 [2]): decreased
mRNA expression of Ha3-II (Ha3-II): increased
expression of the anti-apoptotic protein Bcl-2 (Bcl-2): increased
expression of the apoptosis-related protein Bax (Bax): decreased
mRNA expression of MITF transcription factor (MITF [3]): increased
mRNA expression of keratin-14 (keratin-14): increased
growth of human hair follicle dermal papilla cells [4]: stimulated in a dose-dependent manner
expression of MSX2 (mRNA) (MSX2): increased
tyrosinase activity (tyrosinase [5]): increased
protein expression of DKK-1 (DKK-1 [6]): decreased
expression of VEGF (mRNA) (VEGF): increased
mRNA expression of TRP1 (TRP1): increases
phosphorylation level of ERK (ERK): increased
melanogenesis [7]: increased
activity of β-catenin (β-catenin): increased
expression of TGF-β1 (mRNA) (TGF-β1): inhibited
mRNA expression of tyrosinase enzyme (tyrosinase [8]): increased
protein expression of MITF transcription factor (MITF [9]): increased
